According to patent publication US20140058103A1, “Inhibitors of PI3K-Delta and Methods of Their Use and Manufacture” (Exelixis, Inc., priority 2010, published 2014):

Target: PI3K delta (Homo sapiens, UniProt O00329)
Assay: Luciferase-coupled chemiluminescence kinase assay (ATP consumption, KinaseGlo)
Assay type: biochemical
Description: Kinase activity and compound inhibition were investigated using one or more of the assay formats described below. The ATP concentrations used in the various assays were approximately equal to or less than the KM for each of the respective kinases. Dose-response experiments were performed using an intra-plate dilution scheme with 10 different inhibitor concentrations in a 384-well microtiter plate. IC50 values were calculated by nonlinear regression analysis using the four-parameter equation listed below:
Y=min+(max−min)/(1+(X/IC50)^N) Equation 1
Typically N should approximate unity. Curve fitting was performed using XLFit or ActivityBase.
Kinase activity is measured as the percent of ATP consumed following the kinase reaction using luciferase-luciferin-coupled chemiluminescence. […] Kinase reactions were initiated by combining test compounds, kinase, and ATP in a 20 μL volume (6 μL volume for 1536-well plate). The reaction mixture was incubated at ambient temperature for 2 h. Following the kinase reaction, a 20 μL (or […] for 1536-well plate) aliquot of KinaseGlo (Promega) was added and the chemiluminescence signal measured using an EnVision plate reader (Perkin Elmer).

PI3K delta, sequence (O00329 whole entry): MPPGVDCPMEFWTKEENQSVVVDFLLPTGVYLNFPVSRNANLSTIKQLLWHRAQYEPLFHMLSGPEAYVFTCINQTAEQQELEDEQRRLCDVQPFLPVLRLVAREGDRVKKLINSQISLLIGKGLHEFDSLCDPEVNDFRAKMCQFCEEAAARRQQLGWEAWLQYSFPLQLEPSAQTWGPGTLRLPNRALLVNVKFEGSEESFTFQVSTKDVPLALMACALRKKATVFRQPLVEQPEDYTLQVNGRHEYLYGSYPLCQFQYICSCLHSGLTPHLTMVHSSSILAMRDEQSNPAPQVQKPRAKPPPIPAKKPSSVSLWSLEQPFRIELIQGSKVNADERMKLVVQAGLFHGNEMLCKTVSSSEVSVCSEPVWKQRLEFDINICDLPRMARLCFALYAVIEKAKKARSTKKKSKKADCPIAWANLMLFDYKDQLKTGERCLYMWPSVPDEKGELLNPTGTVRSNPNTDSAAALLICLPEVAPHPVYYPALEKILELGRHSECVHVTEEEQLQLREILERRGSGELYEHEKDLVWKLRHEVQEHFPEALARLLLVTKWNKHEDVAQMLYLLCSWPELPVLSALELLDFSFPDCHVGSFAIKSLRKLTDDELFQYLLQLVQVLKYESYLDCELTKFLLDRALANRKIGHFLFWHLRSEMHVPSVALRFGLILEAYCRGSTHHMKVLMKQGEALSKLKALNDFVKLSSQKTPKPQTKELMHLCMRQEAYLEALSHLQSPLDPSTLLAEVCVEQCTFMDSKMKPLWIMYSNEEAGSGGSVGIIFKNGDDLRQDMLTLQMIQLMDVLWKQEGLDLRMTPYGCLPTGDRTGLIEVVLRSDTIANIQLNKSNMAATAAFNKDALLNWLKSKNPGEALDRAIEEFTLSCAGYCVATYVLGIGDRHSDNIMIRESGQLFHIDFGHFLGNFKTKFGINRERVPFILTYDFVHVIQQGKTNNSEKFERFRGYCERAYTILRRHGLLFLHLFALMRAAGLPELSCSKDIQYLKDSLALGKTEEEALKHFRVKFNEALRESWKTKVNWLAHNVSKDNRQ
PI3K delta, sequence (P27986 whole entry partner): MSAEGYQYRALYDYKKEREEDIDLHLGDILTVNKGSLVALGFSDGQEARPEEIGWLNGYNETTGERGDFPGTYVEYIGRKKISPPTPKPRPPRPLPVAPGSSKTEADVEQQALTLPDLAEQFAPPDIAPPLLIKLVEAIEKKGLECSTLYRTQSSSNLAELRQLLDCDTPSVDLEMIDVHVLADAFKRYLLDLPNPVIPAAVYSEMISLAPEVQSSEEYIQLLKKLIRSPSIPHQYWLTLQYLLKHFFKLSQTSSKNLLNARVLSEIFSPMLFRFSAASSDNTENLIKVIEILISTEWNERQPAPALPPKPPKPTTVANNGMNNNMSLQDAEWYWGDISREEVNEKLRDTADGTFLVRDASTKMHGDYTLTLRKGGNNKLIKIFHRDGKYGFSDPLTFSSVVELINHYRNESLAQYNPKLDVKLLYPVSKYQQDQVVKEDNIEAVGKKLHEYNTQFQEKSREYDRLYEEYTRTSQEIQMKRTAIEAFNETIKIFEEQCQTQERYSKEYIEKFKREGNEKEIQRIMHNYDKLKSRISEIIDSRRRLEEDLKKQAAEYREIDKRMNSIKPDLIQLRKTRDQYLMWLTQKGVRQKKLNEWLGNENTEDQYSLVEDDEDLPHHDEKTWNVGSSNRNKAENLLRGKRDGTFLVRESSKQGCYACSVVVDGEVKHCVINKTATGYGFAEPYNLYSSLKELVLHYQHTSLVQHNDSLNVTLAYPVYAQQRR

IC50 [µM]	Compound
0.05 to 0.25	CCn1c(C(=O)NCCC(C)C)nc2c(N3CCC4(CC3)C(=O)Nc3ccccc34)ncnc21 [Compound 225, 9-ethyl-N-(3-methylbutyl)-6-(2-oxo-1,2-dihydro-1′H-spiro[indole-3,4′-piperidin]-1′-yl)-9H-purine-8-carboxamide]
0.5 to 1.5	CN(CCC#N)C(=O)c1nc2c(N3CCC4(CC3)C(=O)Nc3ccccc34)ncnc2n1C [Compound 39, N-(2-cyanoethyl)-N,9-dimethyl-6-(2-oxo-1,2-dihydro-1′H-spiro[indole-3,4′-piperidin]-1′-yl)-9H-purine-8-carboxamide]
0.5 to 1.5	Cn1cc(-c2nc3c(N4CCN(c5cccc(OCC(=O)N6CCCCC6)c5)CC4)ncnc3n2C)cn1 [Compound 357, 9-methyl-8-(1-methyl-1H-pyrazol-4-yl)-6-(4-{3-[(2-oxo-2-piperidin-1-ylethyl)oxy]phenyl}piperazin-1-yl)-9H-purine]
0.5 to 1.5	Cc1ccccc1CNC(=O)c1nc2c(N3CCC4(CC3)C(=O)Nc3ccccc34)ncnc2n1C [Compound 27, 9-methyl-N-[(2-methylphenyl)methyl]-6-(2-oxo-1,2-dihydro-1′H-spiro[indole-3,4′-piperidin]-1′-yl)-9H-purine-8-carboxamide]
< 0.05	CCn1c(C(=O)NCC(C)(C)O)nc2c(N3CCC4(CC3)C(=O)Nc3ccccc34)ncnc21 [Compound 224, 9-ethyl-N-(2-hydroxy-2-methylpropyl)-6-(2-oxo-1,2-dihydro-1′H-spiro[indole-3,4′-piperidin]-1′-yl)-9H-purine-8-carboxamide]
0.05 to 0.25	Cn1c(-n2cnc(Br)c2)nc2c(N3CCC(n4c(=O)[nH]c5ccccc54)CC3)ncnc21 [Compound 153, 1-{1-[8-(4-bromo-1H-imidazol-1-yl)-9-methyl-9H-purin-6-yl]piperidin-4-yl}-1,3-dihydro-2H-benzimidazol-2-one]
0.5 to 1.5	COc1ccccc1CNC(=O)c1nc2c(N3CCC4(CC3)C(=O)Nc3ccccc34)ncnc2n1C [Compound 26, 9-methyl-N-([2-(methyloxy)phenyl]methyl)-6-(2-oxo-1,2-dihydro-1′H-spiro[indole-3,4′-piperidin]-1′-yl)-9H-purine-8-carboxamide]
< 0.05	CCn1c(C(=O)NCC2CCC2)nc2c(N3CCC(n4c(=O)[nH]c5ccccc54)CC3)ncnc21 [Compound 185, N-(cyclobutylmethyl)-9-ethyl-6-[4-(2-oxo-2,3-dihydro-1H-benzimidazol-1-yl)piperidin-1-yl]-9H-purine-8-carboxamide]
0.05 to 0.25	Cn1c(C(=O)N2CC[C@@H](F)C2)nc2c(N3CCC4(CC3)C(=O)Nc3ccccc34)ncnc21 [Compound 110, 1′-(8-{[(3R)-3-fluoropyrrolidin-1-yl]carbonyl}-9-methyl-9H-purin-6-yl)spiro[indole-3,4′-piperidin]-2(1H)-one]
0.5 to 1.5	Cn1c(C(=O)NCC2CC2)nc2c(N3CCC(n4nnc5ccccc54)CC3)ncnc21 [Compound 143, 6-[4-(1H-1,2,3-benzotriazol-1-yl)piperidin-1-yl]-N-(cyclopropylmethyl)-9-methyl-9H-purine-8-carboxamide]
0.05 to 0.25	CC(NC(=O)c1nc2c(N3CCC4(CC3)C(=O)Nc3ccccc34)ncnc2n1C)C1CC1 (stereo not drawn) [Compound 84, N-(1-cyclopropylethyl)-9-methyl-6-(2-oxo-1,2-dihydro-1′H-spiro[indole-3,4′-piperidin]-1′-yl)-9H-purine-8-carboxamide]
0.5 to 1.5	CCCCc1nc2c(N3CCC(n4c(=O)[nH]c5ccccc54)CC3)ncnc2n1C [Compound 93, 1-[1-(8-butyl-9-methyl-9H-purin-6-yl)piperidin-4-yl]-1,3-dihydro-2H-benzimidazol-2-one]
< 0.05	CCn1c(-c2ccnnc2)nc2c(N3CCC(n4c(=O)[nH]c5ccccc54)CC3)ncnc21 [Compound 312, 1-[1-(9-ethyl-8-pyridazin-4-yl-9H-purin-6-yl)piperidin-4-yl]-1,3-dihydro-2H-benzimidazol-2-one]

The remaining lines, values behind:

Compound	IC50 [µM]
Cn1c(-c2cc[nH]c2)nc2c(N3CCC(n4c(=O)[nH]c5ccccc54)CC3)ncnc21 [Compound 166, 1-{1-[9-methyl-8-(1H-pyrrol-3-yl)-9H-purin-6-yl]piperidin-4-yl}-1,3-dihydro-2H-benzimidazol-2-one]	0.5 to 1.5
Cn1cc(-c2nc3c(N4CCN(S(=O)(=O)c5c(Cl)cccc5Cl)CC4)ncnc3n2C)cn1 [Compound 391, 6-{4-[(2,6-dichlorophenyl)sulfonyl]piperazin-1-yl}-9-methyl-8-(1-methyl-1H-pyrazol-4-yl)-9H-purine]	0.25 to 0.5
Cc1[nH]ncc1-c1nc2c(N3CCC(n4c(=O)[nH]c5ncccc54)CC3)ncnc2n1C [Compound 394, 1-{1-[9-methyl-8-(5-methyl-1H-pyrazol-4-yl)-9H-purin-6-yl]piperidin-4-yl}-1,3-dihydro-2H-imidazo[4,5-b]pyridin-2-one]	< 0.05
Cn1ncc(-c2nc3c(N4CCC(n5c(=O)[nH]c6ccccc65)CC4)ncnc3n2C)c1Cl [Compound 272, 1-{1-[8-(5-chloro-1-methyl-1H-pyrazol-4-yl)-9-methyl-9H-purin-6-yl]piperidin-4-yl}-1,3-dihydro-2H-benzimidazol-2-one]	< 0.05
CCn1c(-c2cncnc2)nc2c(N3CCC4(CC3)C(=O)Nc3ccccc34)ncnc21 [Compound 292, 1′-(9-ethyl-8-pyrimidin-5-yl-9H-purin-6-yl)spiro[indole-3,4′-piperidin]-2(1H)-one]	< 0.05
Cn1c(C(=O)NCC2CC2)nc2c(N3CCC4(CC3)Nc3ccccc3NC4=O)ncnc21 [Compound 249, N-(cyclopropylmethyl)-9-methyl-6-(3′-oxo-3′,4′-dihydro-1H,1′H-spiro[piperidine-4,2′-quinoxalin]-1-yl)-9H-purine-8-carboxamide]	0.5 to 1.5
Cn1cc(-c2nc3c(N4CCC(C#N)(c5ccccc5)CC4)ncnc3n2C)cn1 [Compound 263, 1-[9-Methyl-8-(1-methyl-1H-pyrazol-4-yl)-9H-purin-6-yl]-4-phenylpiperidine-4-carbonitrile]	0.05 to 0.25
Cn1cc(-c2nc3c(N4CCN(c5ccccc5CNS(=O)(=O)c5ccc6ccccc6c5)CC4)ncnc3n2C)cn1 [Compound 364, N-[(2-{4-[9-methyl-8-(1-methyl-1H-pyrazol-4-yl)-9H-purin-6-yl]piperazin-1-yl}phenyl)methyl]naphthalene-2-sulfonamide]	0.5 to 1.5
CC(C)NC(=O)c1nc2c(N3CCC(n4c(=O)[nH]c5ccccc54)CC3)ncnc2n1C [Compound 54, 9-methyl-N-(1-methylethyl)-6-[4-(2-oxo-2,3-dihydro-1H-benzimidazol-1-yl)piperidin-1-yl]-9H-purine-8-carboxamide]	0.05 to 0.25
Cn1c(C(=O)NCC2CC2)nc2c(N3CCC4(CC3)c3ccccc3CC4O)ncnc21 (stereo not drawn) [Compound 130, N-(cyclopropylmethyl)-6-(2-hydroxy-2,3-dihydro-1′H-spiro[indene-1,4′-piperidin]-1′-yl)-9-methyl-9H-purine-8-carboxamide]	0.05 to 0.25
Cn1c(-c2cnc(N)nc2)nc2c(N3CCC(n4c(=O)[nH]c5ccccc54)CC3)ncnc21 [Compound 305, 1-{1-[8-(2-aminopyrimidin-5-yl)-9-methyl-9H-purin-6-yl]piperidin-4-yl}-1,3-dihydro-2H-benzimidazol-2-one]	< 0.05
